Measurements: patent publication US9958439B2, “Carbohydrate detection” (RICHTER LIFE SCIENCE DEVELOPMENT AB, priority 2012, dated 2018)
Where two headings read alike, the source gives them in different places.

Legend:
[1] = for RFU change (Correlation analysis): probe-specific excitation λ, emission 545 nm; for carbohydrate can be detected and/or differentiated by the LCO: conclusion from change in signal magnitude and/or shift in λmax
Procedure: (§1) The excitation spectrum of the probe was analyzed for wavelengths 300-500 nm with emission read at 545 nm.
(§2) 3 μM of each probe was applied to serial two fold dilutions of the insoluble carbohydrate. Respective probes were excited at wavelengths unique to each probe (specified in figure), and emission was read at 545 nm.
(§3) Serial dilutions of carbohydrate suspensions were prepared in dH2O. Concentrations ranging from 10 to 0.039 mg/ml was used for β-1,3-glucan, cellulose and chitin, whereas 5 to 0.019 mg/ml was used for sodium alginate, glucose, amylose, glycogen, cellulobiose, heparin, chondroitin sulfate A. 3 μM of each LCO probe was added to 1 ml aliquots of each concentration of carbohydrate, after which 100 μl was dispensed in triplicates into 96 well plates. Excitation spectra were collected by exciting the sample from 300 to 500 nm and detecting emission at 545 nm. Detection of carbohydrate is concluded when there is a reproducible change in λmax and/or RFU intensity with reference to the negative control. Data from three concentrations, as well as the negative control are shown for each carbohydrate as specified in respective figure.
(§4) The excitation wavelength (emission detected at 545 nm) selected for each LCO is either (1) the λmax, or (2) the excitation wavelength which suffers the lowest background. A linear regression analysis is performed to determine the relationship between the carbohydrate concentration and RFU.

[2] = Procedure: 3 μM of each probe was applied to serial two fold dilutions of the insoluble carbohydrate of which the concentration shown here are 5 mg/ml (_.), 2.5 mg/ml (. . . ), 1.25 mg/ml (__) and 0 mg/ml (_). The excitation spectrum of the probe was analyzed for wavelengths 300-500 nm with emission read at 545 nm.
as §2, §3, §4

[3] = remark: listed apart in the source
Procedure: (§5) 3 μM of each probe was applied to serial two fold dilutions of the carbohydrate of which the concentration shown here are 5 mg/ml (_.), 2.5 mg/ml (. . . ) 1.25 mg/ml (__) and 0 mg/ml (_). The excitation spectrum of the probe was analyzed for wavelengths 300-500 nm with emission read at 545 nm.
3 μM of each probe was applied to serial two fold dilutions of the carbohydrate. Respective probes were excited at wavelengths unique to each probe (specified in figure), and emission was read at 545 nm. […] The mean increase in signal (_) with [Glucose] and the fitted regression line (__) is shown.
as §3, §4

[4] = for RFU change (Correlation analysis): probe-specific excitation λ, emission 545 nm; for carbohydrate can be detected and/or differentiated by the LCO: conclusion from change in signal magnitude and/or shift in λmax; remark: listed apart in the source
Procedure: as §5
(§6) 3 μM of each probe was applied to serial two fold dilutions of the carbohydrate. Respective probes were excited at wavelengths unique to each probe (specified in figure), and emission was read at 545 nm.
as §3, §4

[5] = for RFU change (Correlation analysis): probe-specific excitation λ, emission 545 nm; for Gradient Parameters (gradient of regression line) / Linear relationship / Quality of Gradient: linear regression
Procedure: 3 μM of each probe was applied to serial two fold dilutions of the carbohydrate of which the concentration shown here are 5 mg/ml (_.), 2.5 mg/ml (. . . ), 1.25 mg/ml (__) and 0 mg/ml (_). The excitation spectrum of the probe was analyzed for wavelengths 300-500 nm with emission read at 545 nm.
as §6, §3, §4

[6] = remark: listed apart in the source
Procedure: as §1, §6, §3, §4

[7] = Chitin 10-[…], 3 μM probe, spectral analysis, Excitation 300-500, Emission 545
[8] = cellulose concentration vs RFU, linear regression
[9] = chitin concentration vs RFU, linear regression
[10] = β-1,3-glucan concentration vs RFU, linear regression
[11] = sodium alginate concentration vs RFU, linear regression
[12] = glucose concentration vs RFU, linear regression
[13] = Cellulobiose 5-0.019 mg/ml, 3 μM probe, spectral analysis, Excitation 300-500, Emission 545
[14] = amylose concentration vs RFU, linear regression
[15] = cellulobiose concentration vs RFU, linear regression
[16] = Glycogen 5-0.019 mg/ml, 3 μM probe, spectral analysis, Excitation 300-500, Emission 545
[17] = Chondroitin Sulfate A 5-0.019 mg/ml, 3 μM probe, spectral analysis, Excitation 300-500, Emission 545
[18] = Chondroitin Sulfate A concentration vs RFU, linear regression

## O=C([O-])C[C@H](NC(=O)Cc1cc(-c2cccs2)sc1-c1ccc(-c2sc(-c3cccs3)cc2CC(=O)N[C@@H](CC(=O)[O-])C(=O)[O-])s1)C(=O)[O-].[Na+].[Na+].[Na+].[Na+] [pHTA-Asp, penta Hydrogen Thiophene Acetic acid Aspartic acid]
[1]; Cellulose 10-[…], 3 μM probe
  RFU change (Correlation analysis): Unclear
[1]; Cellulose 10-[…], 3 μM probe, spectral analysis, Excitation 300-500, Emission 545
  RFU change (Signal deviation with increasing [Carbohydrate]): Unclear
[1]; Chitin 10-[…], 3 μM probe
  RFU change (Correlation analysis): Increases
[1]; [7]
  RFU change (Signal deviation with increasing [Carbohydrate]): Increases
  λmax change: Redshift
[1]; Chitin
  carbohydrate can be detected and/or differentiated by the LCO: can be detected and/or differentiated
[1]; [8]
  Gradient Parameters (gradient of regression line): 12.3 ± 64.4
  Quality of Gradient: Horizontal
[1]; [9]
  Gradient Parameters (gradient of regression line): 3138 ± 491.2
  Linear relationship: Significant
  Quality of Gradient: Positive
[1]; to cellulose
  Sensitivity: No
[1]; to chitin
  Sensitivity: Yes
[1]; to β-1,3-glucan
  Sensitivity: Yes
[1]; β-1,3-Glucan
  carbohydrate can be detected and/or differentiated by the LCO: can be detected and/or differentiated
[1]; β-1,3-glucan 10-[…], 3 μM probe
  RFU change (Correlation analysis): Decrease
[1]; β-1,3-glucan 10-[…], 3 μM probe, spectral analysis, Excitation 300-500, Emission 545
  RFU change (Signal deviation with increasing [Carbohydrate]): Decrease
[1]; [10]
  Gradient Parameters (gradient of regression line): −792.9 ± 97.3
  Quality of Gradient: Negative
[2]; Sodium alginate 5-0.019 mg/ml, 3 μM probe, probe-specific excitation λ, emission 545 nm
  RFU change (Correlation analysis): Unclear
[2]; Sodium alginate 5-0.019 mg/ml, 3 μM probe, spectral analysis, Excitation 300-500, Emission 545
  RFU change (Signal deviation with increasing [Carbohydrate]): Unclear
[2]; [11]
  Gradient Parameters (gradient of regression line): 41.4 ± 59.6
  Quality of Gradient: Horizontal
[2]; to sodium alginate
  Sensitivity: No
[3]; Glucose 5-0.019 mg/ml, 3 μM probe, probe-specific excitation λ, emission 545 nm
  RFU change (Correlation analysis): Increases
[3]; Glucose 5-0.019 mg/ml, 3 μM probe, spectral analysis, Excitation 300-500, Emission 545
  RFU change (Signal deviation with increasing [Carbohydrate]): Increases
[3]; Glucose, conclusion from change in signal magnitude and/or shift in λmax
  carbohydrate can be detected and/or differentiated by the LCO: can be detected and/or differentiated
[3]; [12]
  Gradient Parameters (gradient of regression line): 625.1 ± 130.2
  Linear relationship: Significant
  Quality of Gradient: Positive
[3]; to glucose
  Sensitivity: Yes
[4]; Amylose 5-0.019 mg/ml, 3 μM probe
  RFU change (Correlation analysis): Increases
[4]; Amylose 5-0.019 mg/ml, 3 μM probe, spectral analysis, Excitation 300-500, Emission 545
  RFU change (Signal deviation with increasing [Carbohydrate]): Increases
[4]; Amylose
  carbohydrate can be detected and/or differentiated by the LCO: can be detected and/or differentiated
[4]; Cellulobiose 5-0.019 mg/ml, 3 μM probe
  RFU change (Correlation analysis): Increases
[4]; [13]
  RFU change (Signal deviation with increasing [Carbohydrate]): Increases
  λmax change: No change
[4]; Cellulobiose
  carbohydrate can be detected and/or differentiated by the LCO: can be detected and/or differentiated
[4]; [14]
  Gradient Parameters (gradient of regression line): −7.6 ± 208.9
  Quality of Gradient: Horizontal
[4]; [15]
  Linear relationship: Significant
  Quality of Gradient: Positive
[4]; to amylose
  Sensitivity: Yes
[4]; to cellulobiose
  Sensitivity: Yes
[5]; Glycogen 5-0.019 mg/ml, 3 μM probe
  RFU change (Correlation analysis): Decreases
[5]; [16]
  RFU change (Signal deviation with increasing [Carbohydrate]): Decreases
  λmax change: Redshift
[5]; Glycogen, conclusion from change in signal magnitude and/or shift in λmax
  carbohydrate can be detected and/or differentiated by the LCO: can be detected and/or differentiated
[5]; Heparin 5-0.019 mg/ml, 3 μM probe
  RFU change (Correlation analysis): Unclear
[5]; Heparin 5-0.019 mg/ml, 3 μM probe, spectral analysis, Excitation 300-500, Emission 545
  RFU change (Signal deviation with increasing [Carbohydrate]): Unclear
[5]; glycogen concentration vs RFU
  Gradient Parameters (gradient of regression line): −665.8 ± 88.9
  Linear relationship: Significant
  Quality of Gradient: Negative
[5]; heparin concentration vs RFU
  Gradient Parameters (gradient of regression line): −3.2 ± 49.3
  Linear relationship: Not Significant
  Quality of Gradient: Horizontal
[5]; to glycogen
  Sensitivity: Yes
[5]; to heparin
  Sensitivity: No
[6]; Chondroitin Sulfate A 5-0.019 mg/ml, 3 μM probe, probe-specific excitation λ, emission 545 nm
  RFU change (Correlation analysis): Unclear
[6]; [17]
  RFU change (Signal deviation with increasing [Carbohydrate]): Unclear
  λmax change: No change
[6]; [18]
  Gradient Parameters (gradient of regression line): −67.88 ± 90.0
  Quality of Gradient: Horizontal
[6]; to Chondroitin Sulfate A
  Sensitivity: No
